Source: PubChem BioAssay (NCI)
Several values for one entry are separate records, joined by “and”; a condition that tells them apart may be missing. Equal entries are not always repeated.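 Each compound was tested at five concentrations against cells in 96-well plates for 48 hours. Here, GI50 denotes the concentration required for 50% inhibition of growth. At the TGI there is no net growth.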

Key:
Assay in all cases: NCI tumour cell line growth inhibition, 48 h
[1] = system: SNB-75 CNS
[2] = system: M14 melanoma
[3] = system: CCRF-CEM leukemia
[4] = system: RXF 393 renal
[5] = system: T-47D breast
[6] = system: NCI-H460 lung
[7] = system: RPMI-8226 leukemia
[8] = system: ACHN renal
[9] = system: UACC-62 melanoma
[10] = system: A549 NSCLC
[11] = system: KM12 colon
[12] = system: SW-620 colon
[13] = system: TK-10 renal
[14] = system: U251 CNS
[15] = system: NCI-H522 lung
[16] = system: DU-145 prostate
[17] = system: NCI-H23 lung
[18] = system: SK-MEL-5 melanoma
[19] = system: HCT-116 colon
[20] = system: A498 renal
[21] = system: SF-295 CNS
[22] = system: HL-60(TB) leukemia
[23] = system: MALME-3M melanoma
[24] = system: OVCAR-8 ovarian
[25] = system: HCC-2998 colon
[26] = system: EKVX NSCLC
[27] = system: IGROV1 ovarian
[28] = system: MCF7 breast
[29] = system: CAKI-1 renal
[30] = system: HOP-92 NSCLC
[31] = system: UACC-257 melanoma
[32] = system: MOLT-4 leukemia
[33] = system: BT-549 breast
[34] = system: HOP-62 NSCLC
[35] = system: SF-539 CNS
[36] = system: SN12C renal
[37] = system: SK-MEL-2 melanoma
[38] = system: NCI/ADR-RES ovarian
[39] = system: UO-31 renal
[40] = system: SF-268 CNS
[41] = system: HT29 colon
[42] = system: HCT-15 colon
[43] = system: OVCAR-4 ovarian
[44] = system: K-562 leukemia
[45] = system: PC-3 prostate
[46] = system: OVCAR-5 ovarian
[47] = system: MDA-MB-231 breast
[48] = system: 786-0 renal
[49] = system: LOX IMVI melanoma
[50] = system: SK-OV-3 ovarian
[51] = system: OVCAR-3 ovarian
[52] = system: MDA-MB-435

c1ccc2c(c1)[nH]c1c2nc2sccn21
GI50 [1]: 20.6 µM and 44.8 µM | TGI [1]: > 100 µM

N#CC1=C(N)OC2=C(COc3ccc(F)cc32)C1c1ccc(Cl)cc1 (stereo unspecified)
GI50 [2]: 44.6 µM | TGI [2]: > 100 µM | GI50 [3]: 55.5 µM | TGI [3]: > 100 µM | GI50 [4]: > 100 µM | TGI [4]: > 100 µM | GI50 [5]: > 100 µM | TGI [5]: > 100 µM | GI50 [6]: 27.8 µM | TGI [6]: > 100 µM | GI50 [7]: 26.6 µM | TGI [7]: > 100 µM | GI50 [8]: 22.9 µM | TGI [8]: 93.5 µM | GI50 [9]: 18.5 µM | TGI [9]: 42.6 µM | GI50 [10]: 93.4 µM | TGI [10]: > 100 µM | GI50 [11]: 33.4 µM | TGI [11]: > 100 µM | GI50 [12]: 53.3 µM | TGI [12]: > 100 µM | GI50 [13]: 43.1 µM | TGI [13]: > 100 µM | GI50 [14]: 32.6 µM | TGI [14]: > 100 µM | GI50 [15]: 38.2 µM | TGI [15]: 93.6 µM | GI50 [16]: 44.1 µM | TGI [16]: > 100 µM | GI50 [17]: 29.6 µM | TGI [17]: 93.6 µM | GI50 [18]: 20.4 µM | TGI [18]: 58.7 µM | GI50 [19]: 36.3 µM | TGI [19]: > 100 µM | GI50 [20]: 22.2 µM | TGI [20]: 67.7 µM | GI50 [21]: 19.6 µM | TGI [21]: 78.3 µM | GI50 [22]: 33.5 µM | TGI [22]: 86 µM | GI50 [23]: 47.9 µM | TGI [23]: 94.9 µM | GI50 [24]: 51.1 µM | TGI [24]: > 100 µM | GI50 [25]: 25.6 µM | TGI [25]: 60.2 µM | GI50 [26]: 37.3 µM | TGI [26]: > 100 µM | GI50 [27]: 70.3 µM | TGI [27]: > 100 µM | GI50 [28]: 30.3 µM | TGI [28]: > 100 µM | GI50 [29]: 30.1 µM | TGI [29]: > 100 µM | GI50 [30]: 30.5 µM | TGI [30]: > 100 µM | GI50 [31]: 41.6 µM | TGI [31]: > 100 µM | GI50 [32]: 44.7 µM | TGI [32]: > 100 µM | GI50 [33]: 27.3 µM | TGI [33]: 73.5 µM | GI50 [34]: 38.3 µM | TGI [34]: > 100 µM | GI50 [35]: 29.5 µM | TGI [35]: 81.6 µM | GI50 [36]: 28.3 µM | TGI [36]: > 100 µM | GI50 [37]: 35.1 µM | TGI [37]: > 100 µM | GI50 [38]: 19.1 µM | TGI [38]: 48.8 µM | GI50 [39]: 48.5 µM | TGI [39]: > 100 µM | GI50 [40]: 42.8 µM | TGI [40]: > 100 µM | GI50 [41]: 50.4 µM | TGI [41]: > 100 µM | GI50 [42]: 34.4 µM | TGI [42]: > 100 µM | GI50 [43]: 78.3 µM | TGI [43]: > 100 µM | GI50 [44]: 27.3 µM | TGI [44]: 82 µM | GI50 [45]: 32.3 µM | TGI [45]: > 100 µM | GI50 [46]: 41.6 µM | TGI [46]: > 100 µM | GI50 [47]: 26.1 µM | TGI [47]: 88 µM | GI50 [48]: 32.3 µM | TGI [48]: > 100 µM | GI50 [49]: 35.1 µM | TGI [49]: > 100 µM | GI50 [1]: > 100 µM | TGI [1]: > 100 µM | GI50 [50]: 53.1 µM | TGI [50]: > 100 µM | GI50 [51]: 17.2 µM | TGI [51]: 42.3 µM | GI50 [52]: 28.5 µM | TGI [52]: > 100 µM

CCCCCCCCCCC(C[N+](C)(C)C/C=C/c1ccccc1)C(O)c1ccccc1 (stereo unspecified)
GI50 [16]: 1.76 µM | TGI [16]: 3.37 µM | GI50 [22]: 1.1 µM | TGI [22]: 2.63 µM | GI50 [27]: 0.999 µM | TGI [27]: 2.54 µM | GI50 [29]: 12.2 µM | TGI [29]: 34.1 µM | GI50 [30]: 0.435 µM | TGI [30]: 2.08 µM | GI50 [37]: 1.75 µM | TGI [37]: 3.24 µM | GI50 [38]: 7.5 µM | TGI [38]: 34.6 µM | GI50 [39]: 2.09 µM | TGI [39]: 4.51 µM | GI50 [40]: 1.47 µM | TGI [40]: 3.2 µM | GI50 [42]: 2.29 µM | TGI [42]: 6.31 µM
